From patent US20240165113A1, “METHODS OF TREATMENT FOR LEUKEMIA” (DNA SEQ 2, Inc., priority 2021, published 2024)
Where two headings read alike, the source gives them in different places.

Experiments:
[1] = biological target: T1, phosphorylated ABL1(T315I)(229-499) (Homo sapiens, UniProt P00519, T315I); test: SPR binding to phosphorylated ABL1(T315I)(229-499); conditions: Ni-NTA capture of 10xHis-tag
T1 construct: The protocol was adapted to generate phosphorylated 10×His-tev-ABL1(T315I)(229-499) for use in the SPR studies; made in house; host or cells: E. coli; autophosphorylated in vitro with ATP/MgCl2
T1 sequence (P00519 229-499 T315I): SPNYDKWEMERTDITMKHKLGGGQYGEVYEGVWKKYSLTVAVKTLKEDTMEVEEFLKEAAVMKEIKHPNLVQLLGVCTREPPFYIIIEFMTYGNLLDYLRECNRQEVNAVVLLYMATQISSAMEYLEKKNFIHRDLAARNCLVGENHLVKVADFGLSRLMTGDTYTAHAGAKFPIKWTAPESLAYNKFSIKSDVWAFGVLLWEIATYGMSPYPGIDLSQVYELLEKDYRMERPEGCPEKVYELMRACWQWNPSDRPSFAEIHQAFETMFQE

human tumor cells = conditions: growth of human tumor cells; cited from earlier work

Nc1nc(N)c(N=O)c(OCC2CCCCC2)n1 [A-0001, 6-Cyclohexylmethyloxy-5-nitroso-pyrimidine-2,4-diamine]
Kd ([1]; HBST buffer, read-out: Phosphorylated ABL1(T315I)(229-499) in HBST buffer KD): 13 µM | Kd ([1]; PBST buffer, read-out: Phosphorylated ABL1(T315I)(229-499) in PBST buffer KD): 16 µM | GI50 (human tumor cells): 10 µM
